Measurements from BigSolDB 2.1.

COc1cccc(CCc2ccccc2OCC(CN(C)C)OC(=O)CCC(=O)O)c1.Cl (stereo not given)
solubility (mole fraction)
Conditions	in THF	in acetone	in acetonitrile	in ethanol	in isopropanol	in methanol	in n-butanol	in n-propanol
288.15 K	2.24e-05	4.85e-05	9.78e-05	0.00168	4.48e-05	0.00376	0.00011	0.000171
293.15 K	3.25e-05	7.84e-05	0.000141	0.00211	8.24e-05	0.00493	0.000146	0.000262
298.15 K	4.28e-05	0.000106	0.000171	0.00278	0.00011	0.00653	0.00019	0.000354
303.15 K	7.01e-05	0.000193	0.000239	0.00345	0.000144	0.00856	0.000294	0.000504
308.15 K	9.92e-05	0.000275	0.000313	0.00476	0.000186	0.0116	0.000412	0.000698
